Measured values: patent US20090023718A1 (Aton Pharma, Inc., priority 2003, published 2009)
Read-outs that look alike come from different tables or passages of the source.

Columns and labels:
[1] = target: T1, histone deacetylase, subtype 1 (HDAC1) (Homo sapiens, UniProt Q13547); experiment: HDAC1-Flag assay (in vitro fluorescent deacetylation assay); format: biochemical; conditions: epitope-tagged human HDAC1 complex, substrate at Km, mean ± spread (N), read-out: HDAC Inhibition (IC50) nm
T1 construct: Flag; made in house
Procedure: Novel compounds were tested for their ability to inhibit histone deacetylase, subtype 1 (HDAC1) using an in vitro deacetylation assay. The enzyme source for this assay was an epitope-tagged human HDAC1 complex immuno-purified from stably expressing mammalian cells. The substrate consisted of a commercial product containing an acetylated lysine side chain (BIOMOL Research Laboratories, Inc., Plymouth Meeting, Pa.). Upon deacetylation of the substrate by incubation with the purified HDAC1 complex, a fluorophore is produced that is directly proportional to the level of deacetylation.

[2] = system: murine erythroleukemia cell line SC9; experiment: MTS assay (Cell Titer 96 Aqueous One Solution Cell Proliferation Assay); format: cell-based; conditions: Mus musculus; SC9 cells, 48 hours incubation with increasing concentrations, inhibition of proliferation; mean ± spread (N)
Procedure: The novel compounds of the present invention were tested for their ability to inhibit proliferation of the murine erythroleukemia cell line SC9.
The MTS assay, also referred to as the Cell Titer 96 Aqueous One Solution Cell Proliferation Assay, is a colorimetric method for determining the number of viable cells in proliferation, cytotoxicity or chemosensitivity assays. The MTS reagent contains a novel tetrazolium compound [3-(4,5-dimethylthiazol-2-yl)-5-(3-carboxymethoxyphenyl)-2-(4-sulfophenyl)-2H-tetrazolium, inner salt] and electron coupling reagent (phenazine ethosulfate; PES). Murine erythroleukemia cells (SC-9) were incubated with vehicle or increasing concentrations of compound for 48 hours. Cell proliferation was quantitated by adding a small amount of the MTS reagent directly to culture wells, incubating for 1-4 hours and then recording the absorbance at 490 nm with a 96-well plate reader. The quantity of formazan product, as measured by […] absorbance, is directly proportional to the number of living cells in culture.

[3] = Table 1, compounds of formula II

T1 sequence (Q13547 whole entry): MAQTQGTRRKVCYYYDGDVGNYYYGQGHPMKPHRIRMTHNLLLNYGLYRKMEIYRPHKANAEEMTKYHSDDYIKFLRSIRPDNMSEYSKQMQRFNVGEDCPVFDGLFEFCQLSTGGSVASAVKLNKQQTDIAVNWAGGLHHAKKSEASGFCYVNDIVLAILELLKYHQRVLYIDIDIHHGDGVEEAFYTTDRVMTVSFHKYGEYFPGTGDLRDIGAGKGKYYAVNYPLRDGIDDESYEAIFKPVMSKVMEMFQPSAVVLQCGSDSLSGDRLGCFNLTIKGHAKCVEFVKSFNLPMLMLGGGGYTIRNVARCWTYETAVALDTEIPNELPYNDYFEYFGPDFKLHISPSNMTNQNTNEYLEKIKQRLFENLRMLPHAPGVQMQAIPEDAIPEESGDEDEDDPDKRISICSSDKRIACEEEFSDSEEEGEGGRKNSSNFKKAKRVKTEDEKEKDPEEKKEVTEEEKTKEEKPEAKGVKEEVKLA

| IC50 [1, 3] [nM] | IC50 [2] [nM] | IC50 ([1]; Table 2, compounds of formula III) [nM] | IC50 ([1]; Table 4, compounds of formula V) [nM] | Structure (SMILES) |
| --- | --- | --- | --- | --- |
| 20.5 ± 0.7 | 304 ± 83.4 | – | – | O=C(CCCCCC(=O)N(CC(=O)Nc1ccccc1)CC(=O)Nc1ccccc1)NO [Compound 6, Heptanedioic acid bis-phenylcarbamoylmethyl-amide hydroxyamide] |
| 34.5 ± 12.7 | 705 | – | – | O=C(CCCCCC(=O)N(CC(=O)Nc1ccccc1)CC(=O)NC1CCCCC1)NO [Compound 11, Heptanedioic acid cyclohexylcarbamoylmethyl-phenylcarbamoylmethyl-amide hydroxyamide] |
| 26.5 ± 6.3 | 52 ± 24.9 | – | – | O=C(CCCCCC(=O)N(CC(=O)Nc1cccc2cccnc12)CC(=O)Nc1cccc2cccnc12)NO [Compound 9, Heptanedioic acid bis-(quinolin-8-ylcarbamoylmethyl)-amide hydroxyamide] |
| 26 ± 5.6 | 852 | – | – | O=C(CCCCCC(=O)N(CC(=O)NCCc1ccccc1)CC(=O)Nc1ccccc1)NO [Compound 8, Heptanedioic acid hydroxyamide (phenethylcarbamoyl-methyl)-phenylcarbamoylmethyl-amide] |
| 25 ± 21.2 | 46 ± 10.9 | – | – | O=C(CCCCCC(=O)N(CC(=O)Nc1ccccc1)CC(=O)Nc1cccc2cccnc12)NO [Compound 7, Heptanedioic acid hydroxyamide phenylcarbamoylmethyl-(quinolin-8-ylcarbamoylmethyl)-amide] |
| 71 ± 1.4 | 388 | – | – | O=C(CCCCCC(=O)N(CC(=O)NC1CCc2ccccc21)CC(=O)NC1CCc2ccccc21)NO (stereo not drawn) [Compound 37, Heptanedioic acid bis-(indan-1-ylcarbamoylmethyl)-amide hydroxyamide] |
| 9.5 ± 4.9 | 50 ± 27.7 | – | – | O=C(CCCCCC(=O)N(CC(=O)Nc1nc2ccccc2s1)CC(=O)Nc1nc2ccccc2s1)NO [Compound 3, Heptanedioic acid bis-(benzothiazol-2-ylcarbamoylmethyl)-amide hydroxyamide] |
| 16 | 128 | – | – | O=C(CCCCCC(=O)N(CC(=O)Nc1ccc(F)cc1)CC(=O)Nc1ccc(F)cc1)NO [Compound 4, Heptanedioic acid bis-[(4-fluoro-phenylcarbamoyl)-methyl]-amide hydroxyamide] |

The next lines start with the molecule.

| Structure (SMILES) | IC50 [1, 3] [nM] | IC50 [2] [nM] | IC50 ([1]; Table 2, compounds of formula III) [nM] | IC50 ([1]; Table 4, compounds of formula V) [nM] |
| --- | --- | --- | --- | --- |
| O=C(CCCCCC(=O)N(CC(=O)Nc1ccc2c(c1)OCO2)CC(=O)Nc1ccc2c(c1)OCO2)NO [Compound 29, Heptanedioic acid bis-(benzo[1,3]dioxol-5-ylcarbamoylmethyl)-amide hydroxyamide] | 22.5 ± 16.2 | 586 | – | – |
| Cc1cccc2sc(NC(=O)CN(CC(=O)Nc3nc4c(C)cccc4s3)C(=O)CCCCCC(=O)NO)nc12 [Compound 36, Heptanedioic acid bis-[(4-methyl-benzothiazol-2-ylcarbamoyl)-methyl]-amide hydroxyamide] | 14.5 ± 4.9 | 275 ± 19 | – | – |
| O=C(CCCCCCN(CC(=O)Nc1ccccc1)CC(=O)Nc1ccccc1)NO [Compound 41, 7-(Bis-phenylcarbamoylmethyl-amino)-heptanoic acid hydroxyamide] | – | 332 | 18.5 ± 3.5 | – |
| O=C(CCCCCCN(CCc1ccccc1)Cc1ccccc1)NO [Compound 81] | – | 934 | – | 159 ± 14.1 |
| COc1ccc2nc(NC(=O)CN(CC(=O)Nc3nc4ccc(OC)cc4s3)C(=O)CCCCCC(=O)NO)sc2c1 [Compound 34, Heptanedioic acid bis-[(6-methoxy-benzothiazol-2-ylcarbamoyl)-methyl]-amide hydroxyamide] | 7.6 ± 5.6 | 397 ± 98.2 | – | – |
| O=C(CCCCCC(=O)N(CC(=O)Nc1ccc(C(F)(F)F)cc1)CC(=O)Nc1ccc(C(F)(F)F)cc1)NO [Compound 25, Heptanedioic acid bis-[(4-trifluoromethyl-phenylcarbamoyl)-methyl]-amide hydroxyamide] | 89.5 ± 12 | 340 | – | – |
| O=C(CCCCCC(=O)N(CC(=O)Nc1nc2ccc(Cl)cc2s1)CC(=O)Nc1nc2ccc(Cl)cc2s1)NO [Compound 35, Heptanedioic acid bis-[(6-chloro-benzothiazol-2-ylcarbamoyl)-methyl]-amide hydroxyamide] | 10.6 ± 7.7 | 645 | – | – |
| O=C(CCCCCC(=O)N(CC(=O)Nc1nc2ccc(F)cc2s1)CC(=O)Nc1nc2ccc(F)cc2s1)NO [Compound 39, Heptanedioic acid bis-[(6-fluoro-benzothiazol-2-ylcarbamoyl)-methyl]-amide hydroxyamide] | 31.5 ± 12 | 346 | – | – |
| O=C(CCCCCCC(=O)N(CC(=O)Nc1cccc(OCc2ccccc2)c1)CC(=O)Nc1cccc(OCc2ccccc2)c1)NO [Compound 23, Octanedioic acid bis-[(3-benzyloxy-phenylcarbamoyl)-methyl]-amide hydroxyamide] | 861 ± 403 | – | – | – |
